What is called IC50 is the concentration needed to halve the response being measured. A word on the Ki: it is a measure of affinity in units of concentration, obtained from inhibition or displacement.

For experiment [1], the target named is Protein phosphatase 3 catalytic subunit alpha (Homo sapiens, UniProt Q08209). Further details: species or system Escherichia coli.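 Note: inhibition of calcineurin (PP2B) enzyme activity, measured with DiFMUP as the substrate; in other assays of this panel Not Active means under 50% inhibition at 10 µM.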
A further experiment deals with T1, Cathepsin G (Homo sapiens, UniProt P08311).
T1 sequence (P08311 whole entry): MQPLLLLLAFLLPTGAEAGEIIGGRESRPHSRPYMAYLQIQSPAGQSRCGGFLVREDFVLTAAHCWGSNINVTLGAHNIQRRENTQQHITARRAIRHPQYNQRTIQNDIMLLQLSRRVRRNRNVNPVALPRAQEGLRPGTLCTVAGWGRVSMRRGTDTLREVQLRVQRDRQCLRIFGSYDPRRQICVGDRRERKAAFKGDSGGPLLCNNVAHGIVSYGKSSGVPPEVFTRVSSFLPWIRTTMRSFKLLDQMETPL
It is filed as tissue-based. As to conditions: neutrophil.

The target in experiment [2] is 5-hydroxytryptamine receptor 6 (Homo sapiens, UniProt P50406). It is filed as cell membranes, HeLa, Membrane. Note: in other assays of this panel Not Active means under 50% inhibition at 10 µM.
Experiment [3] concerns the target Mitogen-activated protein kinase 14 (Homo sapiens, UniProt Q16539). Further details: species or system Escherichia coli.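 Note: inhibition of p38alpha enzyme activity in a biochemical kinase assay, with myelin basic protein serving as substrate; in other assays of this panel Not Active means under 50% inhibition at 10 µM.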
Experiment [4] in a line: DRUGMATRIX: Purinergic P2X radioligand binding (ligand: [3H] alpha, beta-Methylene-ATP). The format is cell membranes, Oryctolagus cuniculus, New Zealand albino, Urinary bladder, Membrane. The note with it: Not Active = under 50% inhibition at 10 µM.
Experiment [5] can be described thus: DRUGMATRIX: Platelet-Derived Growth Factor (PDGF) radioligand binding (ligand: [125I] PDGF). As to conditions: nih3t3; Not Active = under 50% inhibition at 10 µM. It is filed as cell-based.
Experiment [6] addresses T2, Amine oxidase [flavin-containing] A (Homo sapiens, UniProt P21397).
T2 sequence (P21397 whole entry): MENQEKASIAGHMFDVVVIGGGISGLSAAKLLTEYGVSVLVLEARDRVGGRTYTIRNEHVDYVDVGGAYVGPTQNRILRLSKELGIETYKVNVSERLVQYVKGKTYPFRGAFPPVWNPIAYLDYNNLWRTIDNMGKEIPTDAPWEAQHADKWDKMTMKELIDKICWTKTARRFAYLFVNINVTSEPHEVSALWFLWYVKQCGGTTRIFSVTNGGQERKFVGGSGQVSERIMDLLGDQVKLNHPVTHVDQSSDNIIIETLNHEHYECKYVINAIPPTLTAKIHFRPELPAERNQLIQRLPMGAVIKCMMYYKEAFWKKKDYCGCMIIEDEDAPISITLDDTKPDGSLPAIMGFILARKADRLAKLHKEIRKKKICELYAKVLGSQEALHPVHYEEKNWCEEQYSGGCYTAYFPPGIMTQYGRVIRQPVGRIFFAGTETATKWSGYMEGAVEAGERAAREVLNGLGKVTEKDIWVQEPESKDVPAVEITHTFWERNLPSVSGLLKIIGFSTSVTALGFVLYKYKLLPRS
Kind of experiment: DRUGMATRIX: Monoamine Oxidase MAO-A enzyme inhibition (substrate: Kynuramine). The arrangement: species or system BTI-TN-5B1-4. As to conditions: bti-tn-5b1-4; Not Active = under 50% inhibition at 10 µM.

For the next experiment, the target named is Melanocortin receptor 5 (Homo sapiens, UniProt P33032). The format is cell membranes, HEK293, Membrane. As to conditions: hek293. Note: in other assays of this panel Not Active means under 50% inhibition at 10 µM.
For experiment [7], the target named is T3, C-C chemokine receptor type 4 (Homo sapiens, UniProt P51679). Note: in other assays of this panel Not Active means under 50% inhibition at 10 µM.
T3 sequence (P51679 whole entry): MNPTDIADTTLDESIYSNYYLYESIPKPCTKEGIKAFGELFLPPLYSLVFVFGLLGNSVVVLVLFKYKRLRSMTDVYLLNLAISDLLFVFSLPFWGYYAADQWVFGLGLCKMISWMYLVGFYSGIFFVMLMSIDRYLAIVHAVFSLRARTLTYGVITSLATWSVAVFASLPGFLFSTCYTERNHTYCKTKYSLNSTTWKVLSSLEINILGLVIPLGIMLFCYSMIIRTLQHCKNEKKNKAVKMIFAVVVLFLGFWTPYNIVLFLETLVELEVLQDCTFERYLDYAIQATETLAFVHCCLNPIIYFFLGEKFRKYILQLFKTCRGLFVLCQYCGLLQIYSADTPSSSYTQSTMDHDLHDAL
It is filed as cell membranes, Membrane. The note with it: chem-1.

Experiment [8] deals with Beta-2 adrenergic receptor (Homo sapiens, UniProt P07550). Description: DRUGMATRIX: Adrenergic beta2 radioligand binding (ligand: [3H] CGP-12177). It is filed as cell membranes, Membrane. The note with it: cho; Not Active = under 50% inhibition at 10 µM.
The target of experiment [9] is Epidermal growth factor receptor (Homo sapiens, UniProt P00533). Description: DRUGMATRIX: Protein Tyrosine Kinase, EGF Receptor enzyme inhibition (substrate: Poly(Glu:Tyr)). The format is cell-based, Insect cells. The note with it: Not Active = under 50% inhibition at 10 µM.
The target of experiment [10] is cGMP-specific 3',5'-cyclic phosphodiesterase (Homo sapiens, UniProt O76074). Kind of experiment: DRUGMATRIX: Phosphodiesterase PDE5 enzyme inhibition (substrate: [3H]cGMP + cGMP). It is filed as tissue-based, Platelet. As to conditions: platelet; Not Active = under 50% inhibition at 10 µM.
In experiment [11] the target is Beta-3 adrenergic receptor (Homo sapiens, UniProt P13945). Description: DRUGMATRIX: Adrenergic beta3 radioligand binding (ligand: [125I] Cyanopindolol). As to conditions: hek293; Not Active = under 50% inhibition at 10 µM. It is filed as cell membranes, HEK293, Membrane.
Beta-3 adrenergic receptor, sequence (P13945 whole entry): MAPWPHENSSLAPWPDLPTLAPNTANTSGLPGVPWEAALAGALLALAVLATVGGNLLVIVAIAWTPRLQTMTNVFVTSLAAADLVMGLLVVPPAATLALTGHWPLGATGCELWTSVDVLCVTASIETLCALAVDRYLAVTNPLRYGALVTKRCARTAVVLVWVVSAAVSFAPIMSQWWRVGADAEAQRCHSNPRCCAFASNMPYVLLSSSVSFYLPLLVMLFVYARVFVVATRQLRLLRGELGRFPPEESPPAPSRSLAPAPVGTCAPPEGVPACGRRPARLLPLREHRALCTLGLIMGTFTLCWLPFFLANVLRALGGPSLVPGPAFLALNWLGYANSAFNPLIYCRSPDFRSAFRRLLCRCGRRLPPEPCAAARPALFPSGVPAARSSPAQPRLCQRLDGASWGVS

Mitogen-activated protein kinase 14, sequence (Q16539 whole entry): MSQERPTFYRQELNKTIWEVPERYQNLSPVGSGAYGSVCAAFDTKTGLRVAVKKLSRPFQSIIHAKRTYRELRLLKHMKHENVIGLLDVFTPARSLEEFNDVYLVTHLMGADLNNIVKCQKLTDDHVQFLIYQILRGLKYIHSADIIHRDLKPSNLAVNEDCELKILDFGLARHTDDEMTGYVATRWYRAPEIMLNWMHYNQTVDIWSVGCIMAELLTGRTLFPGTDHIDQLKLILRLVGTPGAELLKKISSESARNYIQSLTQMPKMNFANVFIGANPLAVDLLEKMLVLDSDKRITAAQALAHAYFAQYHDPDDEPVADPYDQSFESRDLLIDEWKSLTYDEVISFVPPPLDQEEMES
5-hydroxytryptamine receptor 6, sequence (P50406 whole entry): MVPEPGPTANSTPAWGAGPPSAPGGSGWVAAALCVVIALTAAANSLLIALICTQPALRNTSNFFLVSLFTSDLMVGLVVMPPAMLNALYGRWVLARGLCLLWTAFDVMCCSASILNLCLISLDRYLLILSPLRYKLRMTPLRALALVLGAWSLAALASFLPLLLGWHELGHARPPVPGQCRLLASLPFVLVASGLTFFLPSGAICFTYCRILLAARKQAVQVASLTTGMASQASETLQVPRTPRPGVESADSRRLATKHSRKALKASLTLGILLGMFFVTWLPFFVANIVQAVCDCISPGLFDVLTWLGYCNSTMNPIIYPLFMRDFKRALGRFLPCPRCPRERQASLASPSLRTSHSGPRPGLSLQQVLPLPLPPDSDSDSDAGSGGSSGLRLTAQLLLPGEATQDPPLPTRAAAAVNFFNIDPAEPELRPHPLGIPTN
Melanocortin receptor 5, sequence (P33032 whole entry): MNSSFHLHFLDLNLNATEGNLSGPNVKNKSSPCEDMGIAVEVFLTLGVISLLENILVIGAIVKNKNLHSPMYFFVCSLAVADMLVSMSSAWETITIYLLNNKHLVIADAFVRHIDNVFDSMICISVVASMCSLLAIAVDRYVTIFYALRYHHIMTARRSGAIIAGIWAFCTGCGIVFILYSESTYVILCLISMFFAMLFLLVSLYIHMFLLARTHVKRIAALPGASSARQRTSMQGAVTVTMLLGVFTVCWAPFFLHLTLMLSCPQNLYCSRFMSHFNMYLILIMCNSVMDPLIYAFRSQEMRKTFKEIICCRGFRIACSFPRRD
Beta-2 adrenergic receptor, sequence (P07550 whole entry): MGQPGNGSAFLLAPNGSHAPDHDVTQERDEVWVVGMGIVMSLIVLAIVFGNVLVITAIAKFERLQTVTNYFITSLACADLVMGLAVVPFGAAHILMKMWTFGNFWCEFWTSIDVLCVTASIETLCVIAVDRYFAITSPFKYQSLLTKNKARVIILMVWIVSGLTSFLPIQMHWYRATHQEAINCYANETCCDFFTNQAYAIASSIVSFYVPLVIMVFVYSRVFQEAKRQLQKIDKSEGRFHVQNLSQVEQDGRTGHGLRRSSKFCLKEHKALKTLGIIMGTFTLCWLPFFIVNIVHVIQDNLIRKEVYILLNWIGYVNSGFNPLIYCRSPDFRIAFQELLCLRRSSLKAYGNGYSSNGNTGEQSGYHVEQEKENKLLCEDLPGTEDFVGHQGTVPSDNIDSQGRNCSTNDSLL
Epidermal growth factor receptor, sequence (P00533 whole entry): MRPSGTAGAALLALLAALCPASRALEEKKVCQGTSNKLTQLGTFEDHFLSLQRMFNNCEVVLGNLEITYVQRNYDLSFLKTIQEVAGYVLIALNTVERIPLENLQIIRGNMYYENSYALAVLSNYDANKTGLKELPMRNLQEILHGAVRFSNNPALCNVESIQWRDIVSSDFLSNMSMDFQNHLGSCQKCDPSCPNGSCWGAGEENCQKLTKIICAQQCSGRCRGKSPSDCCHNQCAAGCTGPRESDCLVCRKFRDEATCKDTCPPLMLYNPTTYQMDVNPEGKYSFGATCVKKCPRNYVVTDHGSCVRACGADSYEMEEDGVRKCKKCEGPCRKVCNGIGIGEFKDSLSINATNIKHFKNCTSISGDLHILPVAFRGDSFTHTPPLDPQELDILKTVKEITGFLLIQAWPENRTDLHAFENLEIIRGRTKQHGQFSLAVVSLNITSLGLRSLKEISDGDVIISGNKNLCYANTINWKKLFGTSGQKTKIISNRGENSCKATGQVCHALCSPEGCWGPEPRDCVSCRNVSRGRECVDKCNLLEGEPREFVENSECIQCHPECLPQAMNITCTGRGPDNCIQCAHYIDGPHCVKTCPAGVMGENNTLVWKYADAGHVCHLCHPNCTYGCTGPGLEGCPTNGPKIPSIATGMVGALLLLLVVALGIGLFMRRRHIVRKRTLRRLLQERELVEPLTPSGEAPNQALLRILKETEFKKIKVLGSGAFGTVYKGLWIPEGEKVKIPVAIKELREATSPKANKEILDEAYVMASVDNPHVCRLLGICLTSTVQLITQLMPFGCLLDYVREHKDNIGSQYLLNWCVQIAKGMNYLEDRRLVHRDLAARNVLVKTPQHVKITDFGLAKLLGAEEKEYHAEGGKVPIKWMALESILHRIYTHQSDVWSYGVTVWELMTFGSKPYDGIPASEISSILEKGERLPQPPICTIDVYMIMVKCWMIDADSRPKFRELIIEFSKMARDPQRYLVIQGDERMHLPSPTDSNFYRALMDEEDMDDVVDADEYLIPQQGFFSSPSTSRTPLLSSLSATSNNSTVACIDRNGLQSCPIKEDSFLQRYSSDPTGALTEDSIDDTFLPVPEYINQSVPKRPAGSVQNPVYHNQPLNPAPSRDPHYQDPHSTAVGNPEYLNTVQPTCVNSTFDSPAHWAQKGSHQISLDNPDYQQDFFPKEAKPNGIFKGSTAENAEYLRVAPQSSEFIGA

On to `CCC[C@@H]1C[C@@H](C(=O)N[C@@H]([C@H]2O[C@H](SC)[C@H](O)[C@@H](O)[C@H]2O)[C@@H](C)O)N(C)C1` [LINCOMYCIN], for which the concentration for half-maximal inhibition (IC50) entry (in experiment [1]; against Cathepsin G; in experiment [2] (hela); in [3]; in experiment [4]; in experiment [5]) was “Not Active” each time. Also, the concentration for half-maximal inhibition (IC50) entry (in experiment [6]; on Melanocortin receptor 5; in [7]; in experiment [8]; in [9] (insect cells); in experiment [10]) was “Not Active” each time. Besides, in experiment [11], the IC50 entry was “Not Active”. The Ki result in experiment [4] and in [5] was “Not Active” each time.

With `NCCCC[C@H](N[C@@H](CCc1ccccc1)C(=O)O)C(=O)N1CCC[C@H]1C(=O)O` [LISINOPRIL ANHYDROUS], the 50% inhibitory concentration (IC50) entry (in experiment [1]; on Cathepsin G; in [2] (hela); in [3]; in experiment [4]; in [5]) was “Not Active” each time. For the same molecule, the IC50 entry (in experiment [6]; on Melanocortin receptor 5; in [7]; in [8]; in experiment [9] (insect cells); in experiment [10]) was “Not Active” each time. Further, the IC50 result in experiment [11] is “Not Active”. Further, the Ki entry in [4] and in [5] was “Not Active” each time.

As to `COS(C)(=O)=O` [METHANESULFONIC ACID METHYL ESTER], the IC50 result (in experiment [1]; on Cathepsin G; in [2] (hela); in experiment [3]; in experiment [4]; in experiment [5]) was “Not Active” throughout. Further, the IC50 entry (in experiment [6]; on Melanocortin receptor 5; in experiment [7]; in experiment [8]; in experiment [9] (insect cells); in [10]) was “Not Active” in each case. In addition, the half-inhibitory concentration (IC50) entry in experiment [11] was “Not Active”. The Ki result in experiment [4] and in [5] was “Not Active” throughout.

On to `COC(=O)c1ccc(O)cc1` [METHYLPARABEN], for which the IC50 result (in experiment [1]; against Cathepsin G; in experiment [2] (hela); in experiment [3]; in experiment [4]; in experiment [5]) was “Not Active” each time. The IC50 result (in [6]; on Melanocortin receptor 5; in [7]; in experiment [8]; in experiment [9] (insect cells); in experiment [10]) was “Not Active” throughout. The half-maximal inhibitory concentration (IC50) entry in [11] is reported as “Not Active”. Moreover, the inhibition constant Ki result in [4] and in [5] was “Not Active” each time.

With `C[C@](N)(Cc1ccc(O)cc1)C(=O)O` [METYROSINE], the IC50 result (in experiment [1]; at Cathepsin G; in experiment [2] (hela); in experiment [3]; in experiment [4]; in experiment [5]) was “Not Active” each time. Besides, the IC50 entry (in [6]; at Melanocortin receptor 5; in [7]; in [8]; in experiment [9] (insect cells); in experiment [10]) was “Not Active” in each case. For the same molecule, the half-inhibitory concentration (IC50) entry in [11] was “Not Active”. The Ki result in experiment [4] and in experiment [5] was “Not Active” throughout.

Turning to `Clc1ccc(C(c2ccccc2Cl)C(Cl)Cl)cc1` (stereo unspecified) [MITOTANE], the half-inhibitory concentration (IC50) result in [1] is “Not Active”; on Cathepsin G, “Not Active”; in [2] (read-out: IC50) it was 1400 nM; in [3], “Not Active”; in [4], “Not Active”; in experiment [5], “Not Active”. Also, the IC50 result (in experiment [6]; against Melanocortin receptor 5; in [7]; in [8]; in experiment [9] (insect cells); in [10]) was “Not Active” each time. In addition, the IC50 entry in experiment [11] is listed as “Not Active”. Besides, the Ki in experiment [2] (read-out: Ki) was 651 nM; in experiment [4] it was “Not Active”; in experiment [5], “Not Active”.

In the case of `O=C1c2c(O)ccc(O)c2C(=O)c2c(NCCNCCO)ccc(NCCNCCO)c21` [MITOXANTRONE], the IC50 result (in [1]; on Cathepsin G; in experiment [2] (hela); in experiment [3]; in experiment [4]; in [5]) was “Not Active” each time. For the same molecule, the IC50 result in experiment [6] is “Not Active”; at Melanocortin receptor 5 it was “Not Active”; in [7] it was “Not Active”; in experiment [8], “Not Active”; in [9] (read-out: IC50), 5390 nM; in [10], “Not Active”. For the same molecule, the IC50 result in experiment [11] is “Not Active”. The inhibition constant (Ki) result in experiment [4] and in [5] was “Not Active” in each case.

Turning to `COc1c(C)c2c(c(O)c1C/C=C(\C)CCC(=O)OCCN1CCOCC1)C(=O)OC2` [MYCOPHENOLATE MOFETIL], the IC50 entry (in experiment [1]; against Cathepsin G; in experiment [2] (hela); in experiment [3]; in experiment [4]; in experiment [5]) was “Not Active” in each case. In addition, the IC50 entry (in experiment [6]; against Melanocortin receptor 5; in experiment [7]; in [8]; in experiment [9] (insect cells); in [10]) was “Not Active” throughout. In [11], the half-maximal inhibitory concentration (IC50) entry is recorded as “Not Active”. The Ki result in experiment [4] and in experiment [5] was “Not Active” throughout.

For the origin of these results see ChEMBL document CHEMBL1909046, “DrugMatrix in vitro pharmacology data”.
